{
  "source": "ChEMBL document CHEMBL5543075",
  "about": "“Phenoxytacrine derivatives: Low-toxicity neuroprotectants exerting affinity to ifenprodil-binding site and cholinesterase inhibition” (Eur J Med Chem, 2024)",
  "key": {"[1]": {"test": "Cytotoxicity against CHO-K1 cells incubated for 24 hrs by MTT assay", "format": "toxicity, cell-based, Cricetulus griseus", "details": "Chinese hamster"}, "[2]": {"molecular_target": "T1, Glutamate NMDA receptor; GRIN1/GRIN2B (Homo sapiens, UniProt Q05586+Q13224)", "test": "Inhibition of recombinant human GluN1/GluN2B receptor expressed in HEK293 cells assessed as reduction in glutamate induced current at 1 uM at -60 mV holding potential by electrophysiology assay relative to control", "format": "cell-based"}, "[3]": {"molecular_target": "T1, Glutamate NMDA receptor; GRIN1/GRIN2B", "test": "Inhibition of recombinant human GluN1/GluN2B receptor expressed in HEK293 cells assessed as reduction in glutamate induced current at -20 mV holding potential by electrophysiology assay", "format": "cell-based"}, "Acetylcholinesterase": {"molecular_target": "Acetylcholinesterase (Homo sapiens, UniProt P22303)", "sequence (P22303 whole entry)": "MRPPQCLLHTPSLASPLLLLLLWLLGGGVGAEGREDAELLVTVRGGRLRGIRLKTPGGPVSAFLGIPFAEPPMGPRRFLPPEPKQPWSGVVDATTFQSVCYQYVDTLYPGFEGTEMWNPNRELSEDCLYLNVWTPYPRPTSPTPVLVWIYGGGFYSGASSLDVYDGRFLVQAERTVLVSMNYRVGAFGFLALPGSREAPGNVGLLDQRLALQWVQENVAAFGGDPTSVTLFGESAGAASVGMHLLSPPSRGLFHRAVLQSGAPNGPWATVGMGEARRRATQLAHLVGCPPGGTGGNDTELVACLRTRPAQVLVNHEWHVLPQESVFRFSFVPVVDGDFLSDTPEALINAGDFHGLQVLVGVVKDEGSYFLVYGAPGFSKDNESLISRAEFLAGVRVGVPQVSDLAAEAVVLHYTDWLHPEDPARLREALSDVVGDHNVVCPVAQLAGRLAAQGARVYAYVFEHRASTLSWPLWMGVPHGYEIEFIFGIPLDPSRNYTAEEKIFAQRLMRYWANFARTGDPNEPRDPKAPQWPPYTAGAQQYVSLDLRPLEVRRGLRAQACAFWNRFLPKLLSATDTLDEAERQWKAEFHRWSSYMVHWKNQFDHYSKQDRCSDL", "test": "Inhibition of human AChE by spectrophotometric Ellman's method"}, "Cholinesterase": {"molecular_target": "Cholinesterase (Homo sapiens, UniProt P06276)", "sequence (P06276 whole entry)": "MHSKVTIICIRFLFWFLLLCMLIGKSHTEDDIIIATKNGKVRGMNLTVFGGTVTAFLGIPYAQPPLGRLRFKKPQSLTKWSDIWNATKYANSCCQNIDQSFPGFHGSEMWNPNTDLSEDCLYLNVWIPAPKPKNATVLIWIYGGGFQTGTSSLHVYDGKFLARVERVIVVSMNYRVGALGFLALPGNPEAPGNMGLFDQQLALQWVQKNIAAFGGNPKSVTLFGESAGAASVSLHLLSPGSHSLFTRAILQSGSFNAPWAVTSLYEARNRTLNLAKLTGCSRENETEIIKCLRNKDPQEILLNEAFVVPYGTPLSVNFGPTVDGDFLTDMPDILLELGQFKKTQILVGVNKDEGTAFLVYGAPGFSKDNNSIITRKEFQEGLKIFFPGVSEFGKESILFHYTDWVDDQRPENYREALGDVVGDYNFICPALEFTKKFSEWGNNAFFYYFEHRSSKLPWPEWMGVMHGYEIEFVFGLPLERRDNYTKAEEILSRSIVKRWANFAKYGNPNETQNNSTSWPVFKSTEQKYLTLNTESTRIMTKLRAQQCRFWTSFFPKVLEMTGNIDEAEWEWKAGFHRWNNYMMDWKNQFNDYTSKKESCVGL", "test": "Inhibition of human BChE by spectrophotometric Ellman's method"}, "[4]": {"molecular_target": "T2, Glutamate NMDA receptor; GRIN1/GRIN2A (Homo sapiens, UniProt Q05586+Q12879)", "T2 sequence (Q12879 whole entry, other chains not shown)": "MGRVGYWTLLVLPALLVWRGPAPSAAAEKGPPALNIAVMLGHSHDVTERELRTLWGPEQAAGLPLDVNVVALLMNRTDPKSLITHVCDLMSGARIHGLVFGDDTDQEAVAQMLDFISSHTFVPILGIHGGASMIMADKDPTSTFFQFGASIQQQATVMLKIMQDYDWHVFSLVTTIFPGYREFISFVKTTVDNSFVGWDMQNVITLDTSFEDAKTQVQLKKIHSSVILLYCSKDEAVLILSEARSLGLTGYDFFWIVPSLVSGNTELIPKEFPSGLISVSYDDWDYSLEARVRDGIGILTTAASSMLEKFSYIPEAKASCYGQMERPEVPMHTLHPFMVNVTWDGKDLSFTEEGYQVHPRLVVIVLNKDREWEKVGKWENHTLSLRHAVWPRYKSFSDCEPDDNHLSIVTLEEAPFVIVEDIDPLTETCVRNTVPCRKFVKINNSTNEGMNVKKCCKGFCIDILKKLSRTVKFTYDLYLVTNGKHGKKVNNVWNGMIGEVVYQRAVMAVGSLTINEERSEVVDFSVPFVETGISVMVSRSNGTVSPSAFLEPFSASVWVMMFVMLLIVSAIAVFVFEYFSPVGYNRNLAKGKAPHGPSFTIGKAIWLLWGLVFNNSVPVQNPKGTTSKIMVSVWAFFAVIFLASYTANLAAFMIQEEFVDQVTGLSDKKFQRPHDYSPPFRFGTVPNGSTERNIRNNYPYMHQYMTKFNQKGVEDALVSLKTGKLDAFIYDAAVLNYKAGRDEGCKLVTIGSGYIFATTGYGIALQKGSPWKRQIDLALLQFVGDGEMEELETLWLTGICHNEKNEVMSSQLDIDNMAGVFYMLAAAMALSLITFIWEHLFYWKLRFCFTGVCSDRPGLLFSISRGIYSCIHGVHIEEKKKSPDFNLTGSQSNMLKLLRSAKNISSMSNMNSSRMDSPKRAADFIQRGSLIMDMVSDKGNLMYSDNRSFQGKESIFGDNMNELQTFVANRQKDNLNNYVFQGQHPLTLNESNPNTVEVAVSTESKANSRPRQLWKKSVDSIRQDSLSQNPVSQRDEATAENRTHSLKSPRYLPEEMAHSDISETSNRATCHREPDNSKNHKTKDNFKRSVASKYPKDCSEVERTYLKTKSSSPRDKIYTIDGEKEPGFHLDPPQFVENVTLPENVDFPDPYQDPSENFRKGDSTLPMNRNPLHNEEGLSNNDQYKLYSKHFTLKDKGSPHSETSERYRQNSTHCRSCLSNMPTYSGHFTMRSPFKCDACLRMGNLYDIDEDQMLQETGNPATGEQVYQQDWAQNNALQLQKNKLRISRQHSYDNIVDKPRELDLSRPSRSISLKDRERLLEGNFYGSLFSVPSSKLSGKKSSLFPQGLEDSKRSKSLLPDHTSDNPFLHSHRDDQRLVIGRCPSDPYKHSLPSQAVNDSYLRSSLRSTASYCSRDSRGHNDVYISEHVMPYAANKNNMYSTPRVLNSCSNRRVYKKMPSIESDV", "test": "Inhibition of recombinant wild type human GluN1/GluN2A receptor expressed in HEK293 cells assessed as reduction in glutamate induced current at -60 mV holding potential by electrophysiology assay", "format": "cell-based"}, "[5]": {"molecular_target": "T1, Glutamate NMDA receptor; GRIN1/GRIN2B", "test": "Inhibition of recombinant wild type human GluN1/GluN2B receptor expressed in HEK293 cells assessed as reduction in glutamate induced current at -60 mV holding potential by electrophysiology assay", "format": "cell-based"}, "[6]": {"test": "Inhibition of recombinant human GluN1 deltaATD/GluN2B receptor expressed in HEK293 cells assessed as reduction in glutamate induced current at -60 mV holding potential by electrophysiology assay", "format": "cell-based"}, "[7]": {"test": "Inhibition of recombinant human GluN1 F113A /GluN2B receptor expressed in HEK293 cells assessed as reduction in glutamate induced current at -60 mV holding potential by electrophysiology assay", "format": "cell-based"}, "[8]": {"test": "Inhibition of recombinant human GluN1 Y109C /GluN2B receptor expressed in HEK293 cells assessed as reduction in glutamate induced current at -60 mV holding potential by electrophysiology assay", "format": "cell-based"}, "[9]": {"test": "Inhibition of recombinant human GluN1/GluN2B Q110F mutant receptor expressed in HEK293 cells assessed as reduction in glutamate induced current at -60 mV holding potential by electrophysiology assay", "format": "cell-based"}, "[10]": {"test": "Inhibition of recombinant human GluN1/GluN2B F114A mutant receptor expressed in HEK293 cells assessed as reduction in glutamate induced current at -60 mV holding potential by electrophysiology assay", "format": "cell-based"}, "[11]": {"molecular_target": "T2, Glutamate NMDA receptor; GRIN1/GRIN2A", "test": "Inhibition of recombinant wild type human GluN1/GluN2A receptor expressed in HEK293 cells assessed as reduction in glutamate induced current at -40 mV holding potential by electrophysiology assay", "format": "cell-based"}, "[12]": {"molecular_target": "T1, Glutamate NMDA receptor; GRIN1/GRIN2B", "test": "Inhibition of recombinant wild type human GluN1/GluN2B receptor expressed in HEK293 cells assessed as reduction in glutamate induced current at -40 mV holding potential by electrophysiology assay", "format": "cell-based"}, "[13]": {"test": "Inhibition of recombinant human GluN1 deltaATD/GluN2B receptor expressed in HEK293 cells assessed as reduction in glutamate induced current at -40 mV holding potential by electrophysiology assay", "format": "cell-based"}, "[14]": {"test": "Inhibition of recombinant human GluN1 F113A /GluN2B receptor expressed in HEK293 cells assessed as reduction in glutamate induced current at -40 mV holding potential by electrophysiology assay", "format": "cell-based"}, "[15]": {"test": "Inhibition of recombinant human GluN1 Y109C /GluN2B receptor expressed in HEK293 cells assessed as reduction in glutamate induced current at -40 mV holding potential by electrophysiology assay", "format": "cell-based"}, "[16]": {"test": "Inhibition of recombinant human GluN1/GluN2B Q110F mutant receptor expressed in HEK293 cells assessed as reduction in glutamate induced current at -40 mV holding potential by electrophysiology assay", "format": "cell-based"}, "[17]": {"test": "Inhibition of recombinant human GluN1/GluN2B F114A mutant receptor expressed in HEK293 cells assessed as reduction in glutamate induced current at -40 mV holding potential by electrophysiology assay", "format": "cell-based"}, "[18]": {"test": "Toxicity in Wistar rat assessed as no observed adverse effect level (NOAEL) at 5 mg/kg, ip", "format": "organism-based", "details": "in vivo"}, "[19]": {"test": "Toxicity in Wistar rat assessed as reduction in breathing at 10 mg/kg, ip", "format": "organism-based", "details": "in vivo"}, "[20]": {"test": "Toxicity in Wistar rat assessed as loss of activity at 10 mg/kg, ip", "format": "organism-based", "details": "in vivo"}, "Rattus norvegicus [21]": {"test_system": "Rattus norvegicus", "test": "Antipsychotic activity in Wistar rat assessed as effect on locomotor activity at 5 mg/kg, ip measured after 10 mins by open field test", "format": "functional, organism-based"}, "Rattus norvegicus [22]": {"test_system": "Rattus norvegicus", "test": "Antipsychotic activity in Wistar rat assessed as effect on pre-pulse inhibition of acoustic startle response at 5 mg/kg, ip measured after 10 mins by pre-pulse inhibition test", "format": "functional, organism-based"}, "Rattus norvegicus [23]": {"test_system": "Rattus norvegicus", "test": "Antialzheimer activity against scopolamine-induced cognitive impairment in Wistar rat assessed as decrease in latency to reach platform at 5 mg/kg, ip measured upto 4 days by morris water maze test", "format": "functional, organism-based", "details": "time <= 4.0 day"}, "Rattus norvegicus [24]": {"test_system": "Rattus norvegicus", "test": "Antialzheimer activity against scopolamine-induced cognitive impairment in Wistar rat assessed as decrease in mean distance from platform at 5 mg/kg, ip measured upto 4 days by morris water maze test (reference value: 51.7 +/-1.5 cm)", "format": "functional", "details": "time <= 4 day"}, "Rattus norvegicus [25]": {"test_system": "Rattus norvegicus", "test": "Antialzheimer activity against scopolamine-induced cognitive impairment in Wistar rat assessed as increase in number of platform crossing at 5 mg/kg, ip measured upto 4 days by morris water maze test", "format": "functional, organism-based", "details": "time <= 4.0 day"}, "in vitro [26]": {"test": "in vitro", "details": "human, liver microsomes", "description": "Metabolic stability in human liver microsomes assessed as half life at 3 uM measured upto 45 min in presence of NADPH regenerating system by LC-MS analysis"}, "in vitro [27]": {"test": "in vitro", "details": "human, liver microsomes", "remark": "listed apart in the source", "description": "Metabolic stability in human liver microsomes assessed as intrinsic clearance at 3 uM measured upto 45 min in presence of NADPH regenerating system by LC-MS analysis"}},
  "note": "Activity calls are given as the source filed them. The rule behind the calls is not given here.",
  "data": [
    {"smiles": "Nc1c2c(nc3ccc(Oc4ccccc4)cc13)CCCC2", "values": [
      {"measurement": "IC50 at 24 h", "setting": "[1]", "value": 31, "unit": "µM"},
      {"measurement": "inhibition", "setting": "[2]", "value": 33.1, "unit": "%"},
      {"measurement": "IC50", "setting": "[3]", "value": "~2000", "unit": "nM"}
    ]},
    {"smiles": "COc1ccccc1Oc1ccc2nc3c(c(N)c2c1)CCCC3.Cl", "values": [
      {"measurement": "IC50 at 24 h", "setting": "[1]", "value": 43, "unit": "µM"},
      {"measurement": "IC50", "setting": "Acetylcholinesterase", "value": 840, "unit": "nM"},
      {"measurement": "IC50", "setting": "Cholinesterase", "value": 440, "unit": "nM"},
      {"measurement": "inhibition", "setting": "[2]", "value": 25.7, "unit": "%"},
      {"measurement": "IC50", "setting": "[4]", "value": 10.1, "unit": "µM"},
      {"measurement": "IC50", "setting": "[5]", "value": 3.6, "unit": "µM"},
      {"measurement": "IC50", "setting": "[6]", "value": 11.1, "unit": "µM"},
      {"measurement": "IC50", "setting": "[7]", "value": 1700, "unit": "nM"},
      {"measurement": "IC50", "setting": "[8]", "value": 9.5, "unit": "µM"},
      {"measurement": "IC50", "setting": "[9]", "value": 9.5, "unit": "µM"},
      {"measurement": "IC50", "setting": "[10]", "value": 9.4, "unit": "µM"},
      {"measurement": "IC50", "setting": "[11]", "value": 43.8, "unit": "µM"},
      {"measurement": "IC50", "setting": "[12]", "value": 6.8, "unit": "µM"},
      {"measurement": "IC50", "setting": "[13]", "value": 47.2, "unit": "µM"},
      {"measurement": "IC50", "setting": "[14]", "value": 2100, "unit": "nM"},
      {"measurement": "IC50", "setting": "[15]", "value": 8.4, "unit": "µM"},
      {"measurement": "IC50", "setting": "[16]", "value": 10.3, "unit": "µM"},
      {"measurement": "IC50", "setting": "[17]", "value": 31.9, "unit": "µM"},
      {"measurement": "Activity", "setting": "[18]", "value": "Non-Toxic"},
      {"measurement": "Activity", "setting": "[19]", "value": "Toxic"},
      {"measurement": "Activity", "setting": "[20]", "value": "Toxic"},
      {"measurement": "Activity", "setting": "Rattus norvegicus [21]", "value": "inactive"},
      {"measurement": "Activity", "setting": "Rattus norvegicus [22]", "value": "inactive"},
      {"measurement": "Activity", "setting": "Rattus norvegicus [23]", "value": "inactive"},
      {"measurement": "Activity", "setting": "Rattus norvegicus [24]", "value": 78.7, "unit": "cm"},
      {"measurement": "Activity", "setting": "Rattus norvegicus [25]", "value": "inactive"},
      {"measurement": "half-life at 0.75 h, 3 µM", "setting": "in vitro [26]", "value": 161, "unit": "min"},
      {"measurement": "microsomal CLint at 0.75 h, 3 µM", "setting": "in vitro [27]", "value": 8.61, "unit": "µL/min/mg"}
    ]}
  ]
}
